Experimental data: PMC9166766 (Experimental & Molecular Medicine, 2022)
Values belong to the molecule of their own block, whether it stands above or below them. No end group written: not given here.

Assays:
[1] = test system: CNAβ2 (calcineurin catalytic subunit); assay: In vitro His-pulldown assay of GST-tagged peptides with His-tagged CNA; assay type: binding; settings: IP150 buffer with 0.5 mM EDTA
Protocol: (§1) GST-tagged peptides and His-tagged CNAα and β2 were expressed in Escherichia coli BL21(DE3)pLysS. When the OD600 reached 0.5, we treated the bacteria with IPTG (0.1 mM overnight at 18 °C or 1 mM for 4 h at 37 °C). We purified the proteins as described previously. We performed a His-pulldown assay with 0.5 ml of IP150 buffer with 0.5 mM EDTA. We mixed His-tagged CNA with GST-tagged peptides and captured it on Ni-NTA agarose beads (Qiagen, Hilden, Germany). We washed the beads three times with binding buffer and analyzed the proteins by western blotting. We pulled down the GST-tagged peptides using Glutathione Sepharose™ 4 Fast Flow (Cytiva, Marlborough, MA, USA) and the biotin-labeled peptides using Streptavidin Agarose Resin (Thermo Fisher Scientific).
(§2) NC negative control, WT wild-type.
(§3) RU response units, NC negative control.

[2] = test system: CNAβ2 (calcineurin catalytic subunit); assay: Immunoprecipitation assay of Flag-CNAβ2 and tagged peptides in HEK293T cells; assay type: cell-based
Excerpt: as §2, §3
(§4) (1 picture or pasted object on this page, not shown here)

[3] = test system: CNA (His-tagged calcineurin catalytic subunit); assay: Surface plasmon resonance (Biacore T200)
Protocol: Using a Biacore T200 (Cytiva), we captured the biotin-labeled peptides on the surface of a Series S Sensor Chip SA (Cytiva). […] Each cycle was performed at 25 °C at a flow rate of 30 μl/min with 120 s of contact and 240 s of dissociation. We analyzed the kinetics of interactions using BIAevaluation 3.2 RC1 (Cytiva).
Biotinylated peptide-bound CNA was detected with His antibody. […] CNA concentrations ranged from 1.25, 2.5, 5, and 10 nM. […] Values shown are the mean ± standard deviation.

[4] = test system: CNA (calcineurin catalytic subunit); settings: biotinylated peptides, His-CNA
Protocol: as §1, §3

[5] = test system: CABIN1 peptide-CNA interaction; assay: Immunoprecipitation of HA-mCherry-CABIN1 peptide and bound CNA from treated Jurkat T cells; assay type: cell-based; settings: for CABIN1 peptide binding to CNA, effect of p38 inhibitor: 10 μM inhibitor, 16 h, n = 6
Excerpt: We lysed the cells in IP150 buffer and immunoprecipitated Flag- and HA-tagged proteins with Anti-FLAG ® M2 Affinity Gel (Sigma–Aldrich) and Pierce™ Anti-HA Agarose (Thermo Fisher Scientific), respectively. […] To quantify the western blot results, we measured the band areas using ImageJ (https://imagej.nih.gov/ij/).
Values shown are the mean ± standard deviation.

[6] = test system: HIF-1α; assay: HIF-1α stabilization in Jurkat T cells (western blot); assay type: cell-based; settings: DMOG
Protocol: Supplementary Fig. 4 No hydroxylation or O -GlcNAcylation occurred in the “PPTP” sequence a Jurkat T cells expressing HA-mCherry -CABIN1 peptide w ere tr eated with DMO G in a dose-dependent manner for 12 h. b Jurkat T cells expressing HA-mCherry-CABIN1 peptide were treated with 500 μ M DMOG in a time-depend ent manner. Each cell lysate was immunoprecipitated with HA antibody and CABIN1 peptide-bound CNA was detected by Western blotting. HIF-1α was det ected as a positive control for DMOG treat ment. c HEK293 T cells were transfected with GST-peptides and GST pull-down assay was conducted.
Hydroxyproline and O-linked glycosylation of the peptides were detected b y Western blotting.
as §4

[7] = test system: CNAβ2 (calcineurin catalytic subunit); assay: Mammalian two-hybrid assay (VP16 AD-CNAβ2 and GAL4 DBD-peptides, pG5-luc) in HEK293T cells; assay type: cell-based; settings: for interaction with / binding affinity to CNA (mammalian two-hybrid): CNAβ2, 24 h, repeated three times
Protocol: (§5) To measure the transcriptional activity of NFAT, we cotransfected Jurkat T cells with GST-tagged peptides and NFAT-luc by electroporation. After 24 h, we pretreated the cells with 0.5 μM FK506 for 1 h and then treated them with 40 nM PMA and 1 μM ionomycin for 8 h. For the mammalian two-hybrid assay, we cotransfected HEK293T cells with GAL4 DBD-tagged CABIN1, VIVIT, chimeric and substituted peptides, VP16 activation domain-tagged CNAβ2, and pG5-luc (luciferase reporter plasmid containing the GAL4-responsive promoter) for 24 h. We lysed the harvested cells with a luciferase assay lysis buffer (17 mM KH2PO4, 183 mM K2HPO4, pH 7.8, 0.2% [v/v] Triton X-100) and sonicated them briefly. We measured luciferase activity for each cell lysate using an Infinite M200 (Tecan, Männedorf, Switzerland). In addition, we confirmed the expression level of the transfected proteins by Western blotting.
A mammalian two-hybrid assay using these peptides was performed (bottom). The compositions of the transfected DNA are described in Supplementary Fig. 1a–c. All experiments were repeated three times and are presented as the mean ± standard deviation. […] SE short exposure, LE long exposure, NC negative control, WT wild-type.
as §2

[8] = test system: ERK2; assay: In vitro kinase assay, ERK2; assay type: biochemical; settings: GST-tagged peptide, 1 h, 30 °C, 50 μM ATP
Protocol: (§6) We used the purified GST-tagged peptides for the in vitro kinase assays with activated recombinant kinases obtained from Proqinase GmbH (Freiburg, Germany). We performed the kinase assays in reaction buffer (50 mM HEPES-NaOH, pH 7.5, 3 mM MgCl2, 3 mM MnCl2, 3 μM sodium orthovanadate, 1 mM dithiothreitol, 50 μM unlabeled ATP, 5 μCi ^32P-γ-ATP) for 1 h at 30 °C. We stopped the reaction by adding 5× sample buffer and separated the proteins using SDS-PAGE. The gel was stained with Coomassie Brilliant Blue, dried, and developed on X-ray film.
(§7) The phosphorylated threonine of the immunoprecipitated peptide with HA antibody was detected with [PXpTP] antibody. b In vitro kinase assays using purified GST-tagged CABIN1 peptide and PKC downstream kinases. c In vitro kinase assays using purified GST-tagged peptides and kinases included in the MAPK family. d Immunoprecipitation assays using Flag-MAPKs and HA-CABIN1 in HEK293T cells. e, f In vitro kinase assays using p38α and substituted CABIN1 peptides. g Jurkat T cells expressing HA-mCherry-tagged CABIN1 peptide were treated with 10 μM p38α inhibitors for 16 h. Immunoprecipitation was performed with HA antibody and detected by western blotting. h Phosphorylated threonine and peptide-bound CNA of g were measured using ImageJ, and the ratio of phosphorylation and calcineurin binding to the CABIN1 peptide was calculated (n = 6). […]

[9] = test system: p38α; assay: In vitro kinase assay, p38α; assay type: biochemical; settings: GST-tagged peptide, 1 h, 30 °C, 50 μM ATP
Protocol: as §6, §7

[10] = test system: JNK1; assay: In vitro kinase assay, JNK1; assay type: biochemical; settings: GST-tagged peptide, 1 h, 30 °C, 50 μM ATP
Protocol: as §6, §7

[11] = set-up: method as in PMID 24319282; settings: ref [17]; cited from earlier work
Excerpt: FK506 and cyclosporin A, respectively cooperating with FKBP12 or cyclophilin, spatially hinder the substrates’ access to the active site of calcineurin, inhibiting its phosphatase activity[30],[31].

[12] = test system: NFAT transcriptional activity; assay: NFAT-luc luciferase reporter assay in Jurkat T cells; assay type: cell-based; settings: GST-tagged CABIN1 peptides, PMA and ionomycin, n = 3, T9V vs T6V
Protocol: as §5, §3, §4

[13] = test system: CABIN1 peptide threonine 9 phosphorylation; assay: Phosphorylation of threonine 9 of the expressed peptide in Jurkat T cells (PXpTP western blot, LC-MS/MS); assay type: cell-based; settings: Jurkat; for phosphorylation of the CABIN1 peptide, effect of p38 inhibitor: 10 μM inhibitor, 16 h, n = 6
Excerpt: We lysed the cells in IP150 buffer and immunoprecipitated Flag- and HA-tagged proteins with Anti-FLAG ® M2 Affinity Gel (Sigma–Aldrich) and Pierce™ Anti-HA Agarose (Thermo Fisher Scientific), respectively. The composition of the buffer and the subsequent process was described previously. To quantify the western blot results, we measured the band areas using ImageJ (https://imagej.nih.gov/ij/).
We purified HA-mCherry-tagged CABIN1-L-1-2 peptides expressed in Jurkat T cells by immunoprecipitating 4 mg of lysates with Pierce™ Anti-HA Agarose. We eluted the bead-bound proteins by competition with 1 mg/ml HA peptide. After separation by SDS-PAGE and staining with Coomassie Brilliant Blue, we analyzed the purified proteins by LC-MS/MS (ProteomeTech, Inc., Seoul, Korea).
as §3
The phosphorylated threonine of the immunoprecipitated peptide with HA antibody was detected with [PXpTP] antibody. b In vitro kinase assays using purified GST-tagged CABIN1 peptide and PKC downstream kinases. c In vitro kinase assays using purified GST-tagged peptides and kinases included in the MAPK family. d Immunoprecipitation assays using Flag-MAPKs and HA-CABIN1 in HEK293T cells. e, f In vitro kinase assays using p38α and substituted CABIN1 peptides. g Jurkat T cells expressing HA-mCherry-tagged CABIN1 peptide were treated with 10 μM p38α inhibitors for 16 h. Immunoprecipitation was performed with HA antibody and detected by western blotting. h Phosphorylated threonine and peptide-bound CNA of g were measured using ImageJ, and the ratio of phosphorylation and calcineurin binding to the CABIN1 peptide was calculated (n = 6). […] Statistical differences were determined using one-way ANOVA. *p < 0.05, **p < 0.01, ***p < 0.001, CBB Coomassie Brilliant Blue, NC negative control.

[14] = biotinylated peptide on SA chip, CNA 1.25-10 nM, HBS-EP+ pH 7.4, 25 °C, 30 μl/min, mean ± SD

Molecule: T6V: CABIN1 peptide with threonine 6 substituted with valine (PEITVVPPTP; also: GST and HA tags, end not given here)
interaction with CNA in vitro (His-pulldown) [1]: abolished the interaction | interaction with CNA by immunoprecipitation [2]: abolished the interaction

Kd (dissociation rate) [3, 14]: 5.79e-4±3.2e-5 1/S
Molecule: Biotin-AAAMAGFPPEITVTPP{pTHR}P [p-CABIN1-L-1]
increase in binding affinity by phosphorylation of the 9th threonine ([3]; SPR, phosphorylated vs unphosphorylated CABIN1 peptide): increased the binding affinity by approximately threefold | Ka (association rate) [3, 14]: 3393.3±380.8 1/MS | affinity for CNA (streptavidin pulldown) [4]: dramatically increased the affinity for CNA

Molecule: COC(=O)CNC(=O)C(=O)OC [DMOG, dimethyloxalylglycine]
CABIN1 peptide and CNA interaction, effect of DMOG ([5]; DMOG dose-dependent 12 h or 500 μM time-dependent): did not affect the CABIN1 peptide and CNA interaction | HIF-1α stabilization [6]: stabilized hypoxia-inducible factor-1alpha (HIF-1α)

phosphorylation by ERK2 [8]: phosphorylated | phosphorylation by p38α [9]: phosphorylated | phosphorylation by JNK1 [10]: phosphorylated
Molecule: VIVIT PPTP: chimeric peptide with C-terminal sequence of VIVIT swapped for PPTP of CABIN1 (PVIVITPPTP; also: GAL4 DNA-binding domain tag)
fold enhancement of interaction with CNA, VIVIT PPTP vs. L-1-2 WT (effect of N-terminal PVIVIT) ([7]; CNAβ2, VIVIT PPTP vs. L-1-2 WT): 1.93 fold | fold enhancement of interaction with CNA, VIVIT PPTP vs. VIVIT 10-mer (effect of C-terminal PPTP) ([7]; CNAβ2, VIVIT PPTP vs. VIVIT 10-mer): 4.76 fold

Molecule: cyclosporin A
side effects [11]: nephrotoxicity, fibrogenesis, neurotoxicity, and diabetes

Molecule: CABIN1-L-2: CABIN1-L with C-terminal residues removed (FPPEITVTPPT; also: GAL4 DNA-binding domain tag)
interaction with / binding affinity to CNA (mammalian two-hybrid) [7]: completely lost its binding affinity to CNA

Molecule: T9V: CABIN1 peptide with threonine 9 substituted with valine (PEITVTPPVP; not fully specified)
interaction with CNA in vitro (His-pulldown) [1]: not in vitro | interaction with CNA by immunoprecipitation [2]: abolished the interaction in the cellular experiment | NFAT transcriptional activity restored by substitution [12]: restored the CABIN1-suppressed transcriptional activity of NFAT more efficiently than the T6V substitution

Molecule: Cc1ccccc1C(=O)c1ccc(Nc2ccc(Br)cc2N)cc1Cl [EO 1428]
phosphorylation of the CABIN1 peptide, effect of p38 inhibitor [13]: significantly reduced phosphorylation of the CABIN1 peptide | CABIN1 peptide binding to CNA, effect of p38 inhibitor [5]: decreasing its binding affinity for CNA

Molecule: CABIN1-L-1-1: CABIN1-L-1 with N-terminal residues removed (PPEITVTPPTP; also: GAL4 DNA-binding domain tag)
interaction with / binding affinity to CNA (mammalian two-hybrid) [7]: still bound to CNA

Molecule: CCCCCCCCCCCCCC(=O)O[C@@H]1[C@@H](C)[C@@]2(O)[C@@H](C=C(CO)C[C@]3(O)C(=O)C(C)=C[C@@H]23)[C@@H]2C(C)(C)[C@]12OC(C)=O [PMA, phorbol myristate acetate]
CABIN1 peptide phosphorylation after PMA ([13]; 40 nM PMA, two hours after treatment): CABIN1 peptide phosphorylation increased

Molecule: CABIN1-L-1-3: CABIN1-L-1 with N-terminal residues removed (EITVTPPTP; also: GAL4 DNA-binding domain tag)
interaction with / binding affinity to CNA (mammalian two-hybrid) [7]: lost its binding affinity

Molecule: CCc1nc(-c2cccc(C)c2)c(-c2ccnc(NC(=O)c3ccccc3)c2)s1 [TAK 715]
phosphorylation of the CABIN1 peptide, effect of p38 inhibitor [13]: significantly reduced phosphorylation of the CABIN1 peptide | CABIN1 peptide binding to CNA, effect of p38 inhibitor [5]: decreasing its binding affinity for CNA

Molecule: CABIN1-L: first 13-amino acid segment containing the PxIxIT motif, from CABIN1-14 (FPPEITVTPPTPT; also: GAL4 DNA-binding domain tag)
interaction with / binding affinity to CNA (mammalian two-hybrid) [7]: significantly stronger affinity for CNA than CABIN1-14
